# The METLIN SMRT retention time set (Domingo-Almenara et al. 2019)
# Assay: gradient 5% acetonitrile 3 min, to 50% in 2 min, to 85% in 15 min, held 3 min, 100 µL/min
# Conditions: column: Zorbax Extend-C18 2.1 x 50 mm; eluents: water / acetonitrile, 0.1% formic acid
# Procedure, shortened: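 In both positive and negative ionization mode, a quadrupole time-of-flight mass spectrometer coupled to HPLC analyzed pure standards run in mixtures of ~100 molecules. The Zorbax Extend-C18 column (2.1 × 50 mm, 1.8 μm) was operated at 100 μL/min with water and acetonitrile, each containing 0.1% formic acid. The dead volume was 40 μL and the dwell volume 900 μL. Retention time came from adduct peaks that were computationally picked and individually inspected by hand.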
row,RP-LC retention time [s],Structure (SMILES)
1,730,COc1cc([C@H]2c3cc4c(cc3[C@@H](O)[C@H](CO)[C@H]2C(=O)Nc2ccccc2)OCO4)cc(OC)c1OC
2,706,O=C(Cn1ccc2c(SCc3ccc(F)cc3)nccc21)NCc1ccc(N2CCOCC2)cc1
3,683,CCCNC(=O)C1CCCN(c2ccc(SCC(=O)Nc3cccc(Cl)c3)nn2)C1 (stereo not drawn)
4,904,CC(C)c1nnc(-c2ccc(S(=O)(=O)NC3CCCCC3)o2)o1
5,1180,Cc1sc(NC(=O)c2ccc(COc3ccc(F)cc3)o2)nc1-c1ccccc1
6,909,COc1ccc(N2CC(c3noc(-c4ccc(C)cc4)n3)CC2=O)cc1OC (stereo not drawn)
7,662,COc1ccc(C2(C(=O)N3CCC(n4c(C)cnc4C4CCC4)CC3)CC2)cc1
8,816,COc1ccc(-c2noc(C3CC(=O)N(c4ccc5c(c4)OCO5)C3)n2)c(OC)c1 (stereo not drawn)
9,970,Cc1ccc(C)c(NS(=O)(=O)c2ccc3c(c2)C(=O)N(C)c2ncccc2O3)c1
10,1070,CCOc1ccc(NC(=O)c2cc(S(=O)(=O)N3CCC(C)CC3)cn2C)cc1
11,693,O=C(C1CCC1)N1CCC(c2noc(-c3ccncc3)n2)C1 (stereo not drawn)
12,1320,O=C(Nc1cccc(Cl)c1)c1c(O)c2cccnc2n(-c2ccc(F)cc2)c1=O
13,1050,CC(C)n1c(=O)sc2cc(S(=O)(=O)N3CCC(C(=O)Nc4ccc(Cl)cc4)CC3)ccc21
14,920,CC(=O)c1ccc(Oc2ccccc2)cc1
15,567,O=C1COc2cc(S(=O)(=O)N3CCCC3C(=O)NCCN3CCCC3)c(Cl)cc2N1 (stereo not drawn)
16,712,CCOc1ccc(C(C)NC(=O)C2CCN(c3cnc4nccnc4c3)CC2)cc1 (stereo not drawn)
17,898,CN1C(=O)COc2ccc(-c3csc(NC(=O)Cc4ccccc4)n3)cc21
18,676,Cc1ccc(N2CC(c3nc(-c4ccc5c(c4)ncn5CCC(=O)N4CCCC4)no3)CC2=O)cc1 (stereo not drawn)
19,802,COc1ccc(NC(=O)CSc2nc3ccccc3nc2C)cc1
20,757,CCN1C(=O)CCc2cc(NC(=O)Cc3cccc(OC)c3)ccc21
21,1230,CCc1nc(-c2ccc(-c3noc(-c4ccncc4)n3)cc2)cs1
22,745,CCc1ccc(S(=O)(=O)N2C[C@@H](F)C[C@H]2C(=O)N2CCOCC2)cc1

row,RP-LC retention time [s],Structure (SMILES)
1,859,Cc1ccc(NC(=O)Cn2cnc3c(sc4nc(-c5ccccc5)ccc43)c2=O)cc1
2,694,O=C1CC(CNS(=O)(=O)c2cccnc2)CN1c1ccc(Cl)cc1 (stereo not drawn)
3,1120,COc1cc(C(=O)Nc2nc(-c3ccc(C)cc3)cs2)c(Br)c(OC)c1OC
4,999,Cc1ccc(C)c(N2CCN(c3ccnc(SCC(=O)Nc4cccc(Cl)c4)n3)CC2)c1
5,621,COc1cc(-c2nc3ncccn3c2Nc2ccc3c(c2)OCO3)ccc1O
6,963,O=C(NC1(c2nc(-c3cccnc3)no2)CCCCC1)c1ccc(F)c(F)c1
7,822,COc1ccc(CC(C)(O)CNC(=O)c2cc(Br)ccc2Cl)cc1 (stereo not drawn)
8,792,Cc1ccc(-c2ccc3nn(CC(=O)NC4CCCCC4)c(=O)n3n2)cc1C
9,914,CC1(C(=O)NCc2ccccc2)CN(S(=O)(=O)c2ccccc2)CC(=O)N1c1ccc(F)cc1 (stereo not drawn)
10,623,O=C1COc2c1ccc(O)c2O
11,865,O=C(NCCc1ccccc1)C1c2ccccc2C(=O)N1Cc1ccc2c(c1)OCO2 (stereo not drawn)
12,997,Cc1c(Cl)cccc1Nc1c(-c2ccccc2)nc2cnccn12
13,802,O=C(NCC1(c2cccs2)CCOCC1)C(=O)Nc1ccc2c(c1)OCCO2
14,597,Brc1ccc(-c2ccc(CNCC3CCNCC3)o2)cc1
15,985,Cc1ccc(-c2cc3c4nnc(SCC(=O)Nc5ccccc5F)n4ccn3n2)cc1C
16,649,Cc1ccc(CNC(=O)C2CCCN(c3nnc4ccccn34)C2)o1 (stereo not drawn)
17,814,O=C(CCc1c[nH]c2ccccc12)N1CCN(C(=O)c2cc(-c3cccnc3)n[nH]2)CC1
18,840,COc1ccc(C)cc1NC(=O)Cn1nc2nc(N3CCCCC3C)ccn2c1=O (stereo not drawn)
19,898,O=c1c2nc(-c3ccc(Br)cc3)cn2ccn1-c1cccc(F)c1
20,735,Cc1cccc(S(=O)(=O)N2CCC(n3cnnc3C(C)C)CC2)c1
21,720,COc1ccc(NC(=O)Cn2nc3c(N4CCSCC4)nccn3c2=O)cc1OC
22,749,Cc1csc(-c2cc(S(=O)(=O)Nc3ccc(S(N)(=O)=O)cc3)c(C)n2C)n1

row,RP-LC retention time [s],Structure (SMILES)
1,735,CC(=O)N1CCc2cc(N3CC(C(=O)Nc4ccc(C)cc4Cl)CC3=O)ccc21 (stereo not drawn)
2,826,CN(CCCNC(=O)C1CCCN(c2ncc(-c3ccccc3)cn2)C1)c1ccccc1 (stereo not drawn)
3,707,Cc1ccc(-c2nc3ccccn3c2NC(=O)Nc2cc(F)ccc2F)cc1
4,735,CCOC(=O)c1c(C)oc2nc(C)nc(NCCN(Cc3ccccc3)C(C)C)c12
5,859,O=C(NCC1CCCO1)NC1CCN(c2nc3cccnc3n(Cc3ccccc3)c2=O)CC1 (stereo not drawn)
6,812,CN(C)S(=O)(=O)c1ccc2c(c1)N(CC(=O)N1CCCCC1)C(=O)C1CCCCN21 (stereo not drawn)
7,655,Cc1cc(N(C)C)n2nc(CN3CCN(c4cccc(C)c4C)CC3)nc2n1
8,1080,O=C(CN1C(=O)C(C(=O)N2CCCC2)Sc2ccccc21)Nc1cccc(Cl)c1 (stereo not drawn)
9,614,CCCNC(=O)C1CCCN(c2ccc(SCC(=O)Nc3ccc(S(C)(=O)=O)cc3)nn2)C1 (stereo not drawn)
10,994,O=C(Nc1cccc(F)c1)N1CCCC1c1nc(-c2cccc(F)c2)no1 (stereo not drawn)
11,792,CCCCN1CC(c2nc3ccccc3n2CC(=O)N(c2ccccc2)C(C)C)CC1=O (stereo not drawn)
12,968,CN1C(=O)c2cc(S(=O)(=O)NCc3ccc(Cl)cc3)ccc2Oc2cccnc21
13,658,COC1CCC12CCN(C(=O)CC1CCN(C(C)=O)CC1)CC2 (stereo not drawn)
14,630,CCCCCCCCOC(=O)/C=C/c1ccc(O)c(O)c1
15,923,Cc1ccc(NC(=O)Cn2nc3c(Oc4ccccc4C)nccn3c2=O)cc1C
16,583,COc1ccc2c(c1)CCN(C(=O)CNC(=O)c1ccc(=O)[nH]c1)C2
17,601,COc1ccc(OCC(=O)N2CCCCC2CCN2CCOCC2)cc1 (stereo not drawn)
18,616,COc1ccc(OC)c(CNC(=O)Cc2nnc(-c3cnccn3)o2)c1
19,680,O=C(CCC1CCN(c2cc(NC3CC3)ncn2)CC1)NCc1ccc(Cl)cc1
20,593,O=C(NCC(=O)N1CCOCC1)c1c[nH]c2ccccc12
21,580,NC(=O)C1CCN(C(=O)CN2CCN(c3ccccc3F)CC2)CC1
22,538,O=C(NC1CC1)[C@@H]1C[C@H](Oc2cccnc2)CN1C(=O)c1ccco1

row,RP-LC retention time [s],Structure (SMILES)
1,977,Fc1ccccc1-c1nc(-c2cccc(-c3ccn[nH]3)c2)no1
2,762,COc1ccc(C(=O)N2c3ccccc3NC3=C(C(=O)CCC3)C2c2ccco2)cc1 (stereo not drawn)
3,846,Fc1ccc(OCc2nnc3sc(-c4ccccn4)nn23)cc1
4,842,Cc1ccc(NC(=O)C2CCCN2S(=O)(=O)c2cc3c(cc2C)NC(=O)C(C)O3)cc1C (stereo not drawn)
5,981,O=C(NCc1ccccc1)C1Cc2ccccc2CN1S(=O)(=O)c1ccccc1 (stereo not drawn)
6,921,CCCn1cc(S(=O)(=O)Nc2ccc(C)c(F)c2)c2cccnc21
7,599,CC(NC(=O)c1ccco1)c1nc(-c2ccc3ncn(C)c3c2)no1 (stereo not drawn)
8,581,COc1ccc(NC(=O)N2CCC(n3cnc4cccnc43)CC2)cc1OC
9,794,O=C(CSc1cc(NCc2ccccc2Cl)ncn1)NC1CCCC1
10,756,COc1ccc(NC(=O)C2CCc3sc(C(=O)N4CCCC4)cc3C2)c(OC)c1 (stereo not drawn)
11,797,CCn1nc(C)c(S(=O)(=O)N2CCN(C(=O)C3(c4ccc(OC)cc4)CC3)CC2)c1C
12,513,CN1CC(=O)NC(c2ccccc2F)C1=O (stereo not drawn)
13,619,CN1C(=O)c2cccnc2Sc2cc(NC(=O)C3CCCO3)ccc21 (stereo not drawn)
14,1090,Cc1cc(=O)n(CC(=O)Nc2ccc(F)c(Cl)c2)c(-c2ccccc2)n1
15,784,O=C(NCCc1ccco1)c1nc(Nc2ccc(F)cc2)c2ccccc2n1
16,792,O=C(Nc1ccccc1)C1CC(=O)N(c2ccc3c(c2)CCN3C(=O)C2CCC2)C1 (stereo not drawn)
17,739,CCc1ccc(N2CC(c3nc4ccccc4n3CC(=O)N3CCCC3)CC2=O)cc1 (stereo not drawn)
18,930,N#Cc1cccc(NC(=O)N2CCCC2c2nc(-c3ccc(F)cc3F)no2)c1 (stereo not drawn)
19,631,COCC(=O)N1CCCCCNC(=O)[C@@H]2CCCC[C@@H]21
20,592,Cc1ccc(C(=O)NCCN2CCCC2)cc1NC(=O)C1=CSCCO1

row,Structure (SMILES),RP-LC retention time [s]
1,c1ccc2c(c1)c(-c1noc(-c3ccncc3)n1)nn2CCN1CCCCC1,642
2,CCOC(=O)c1cc(S(=O)(=O)N2CCCC2C(=O)N2CCC3(CC2)OCCO3)cn1C (stereo not drawn),720
